The source of these data is article PMC3109731 (Journal of clinical psychopharmacology, 2010).

For series [1], the system named is pregnant women with major depressive disorder. As to the kind of experiment: Depression level on the 17-item Hamilton Rating Scale for Depression. The class given is in vivo, human. The conditions noted are these: for Mean HRS-D score: fluoxetine 10 to 80 mg daily.
The conditions of series [2]: cited from earlier work.
The mark [3] stands for this setting: among the 16 subjects with 2 or more repeated depression scores.

With `CNCCC(Oc1ccc(C(F)(F)F)cc1)c1ccccc1` (stereo not drawn) [FLX, fluoxetine], the “Mean HRS-D score” value in series [1] (12 weeks postpartum) is given as 7.6 ± 6.5; in series [1] (20 weeks of gestation), 7.3 ± 3.3; in series [1] (30 weeks of gestation), 8.7 ± 5.6; in series [1] (36 weeks of gestation), 7.1 ± 3.2; in series [1] (during delivery), 8.3 ± 5.9. The “Subjects with mild to moderate depression levels (HRS-D 12–22)” value in series [1] (setting [3]) is listed as 3 subjects. In addition, in series [1] (setting [3]), the “Subjects with remitted depression (HRS-D ≤8)” value came to 13 subjects. Also, the Expected half-life in series [2] is 48 to 96 h. Further, in series [2], the “Time to reach steady-state concentration” value was at most 23 days.
